According to patent US12686666B2, “Triazine compound salt, crystal form thereof, and production method therefor” (TANABE PHARMA CORPORATION, priority 2020, dated 2026):
Marks after values point to notes of the source that are not given here.

Legend:
Format in all cases: physicochemical
[1] = Thermal stability evaluation (TG/DTA weight change); details: for Thermal stability, conclusion in words: did not show a significant weight change (Succinate Form A: at 25 to 148° C., melting point)
Experimental: (§1) Thermal stability was measured and evaluated by using a thermogravimetry/differential thermal analyzer TG/DTA7200 (SII NanoTechnology Inc.) under the following conditions. • Rate of temperature increase: 10° C./min • Range of temperature increase: 25 to 300° C. • Atmosphere: nitrogen 200 mL/min <Hygroscopicity or Deliquescency Evaluation>
as §1, with “Inc.) under the following conditions • Rate of temperature increase: 10° C./min • Range of temperature increase: 30 to 300° C. • Atmosphere: nitrogen 200 mL/min • or • using a TGA/DSC1 thermogravimetric analyzer (manufactured by Mettler Toledo, STARe system)” for “Inc.)”, “nitrogen 50” for “nitrogen 200”

[2] = Chemical stability evaluation (storage 1 week, liquid chromatography peak area %); details: for Chemical stability, conclusion in words: did not show a significant increase of related substances
Experimental: Each about 1 mg of a sample stored at 60° C. (sealed) or 60° C./75% RH (open) for 1 week and an unstored sample (at the start of test) was dissolved into a mixed solution of acetonitrile/water (1:1) (5 mL) to obtain each sample solution. A test was carried out by liquid chromatographic method under the following conditions to measure each peak area (%).
Each peak area (%) was measured by using Waters ACQUITY UPLC under the following conditions. • Detector: Photodiode array (measurement wavelength: 239 nm) • Column: Waters ACQUITY BEH C18 (2.1 mm×100 mm, 1.7 μm) • Column temperature: constant temperature about 40° C. • Mobile phase: Solution A; water/TFA (2000:1), Solution B; Acetonitrile/TFA (2000:1) • Concentration gradient control: B % 2→100% (15 minutes) • Flow rate: 0.5 mL/min • Injection volume: 2 μL
Each sample was stored at 60° C. under a sealed condition and at 60° C. under 75% RH for 1 week, and an increase or decrease of related substance(s) after the storage was calculated by high-performance liquid chromatographic method on the basis of the area percentage of each peak. Also, the condition of each sample after the storage was observed.

[3] = Hygroscopicity or deliquescency evaluation (moisture adsorption, DVS); details: for Hydration state (hydration stage in moisture adsorption): normal temperature, relative humidity of 10 to 95%; for Hygroscopicity or deliquescency, conclusion in words: from Table 5
Experimental: Hygroscopicity or deliquescency was evaluated as follows by using a moisture adsorption measurement device DVS-1 or DVS-intrinsic (Surface Measurement Systems Limited). Each sample (about 5 mg) was placed into an aluminum plate of which the tare weight had been corrected in advance, and the plate was hung on the precision balance of said device to precisely measure the weight at the start of measurement. The humidity was changed in a stepwise manner in a chamber at 25° C., the weight change was recorded with time, and the equilibrium weight was calculated at each humidity. On the basis of the weight at a dried condition (0% RH), the weight change rate and hydration number at each humidity were calculated.
Hygroscopicity or deliquescency was evaluated as follows by using a moisture adsorption measurement device DVS-1 or DVS-intrinsic (Surface Measurement Systems Limited). Each sample was placed into a cell of which the tare weight had been corrected in advance, and the cell was hung on the precision balance of said device to precisely measure the weight at the start of measurement. The humidity was changed in a stepwise manner, the weight change was recorded with time, and the equilibrium weight was calculated at each humidity. On the basis of the weight of anhydride converted from the amount of water at a dried condition (0% RH) or at the start of measurement observed by an alternative method, the weight change rate at each humidity was calculated.

[4] = Table 5, change of related substances (peak area %) vs start
[5] = Table 5, stored 1 week at 60° C. sealed, change of related substances (peak area %) vs start
[6] = Table 5, 25° C., relative to weight at 0% RH
[7] = Table 10, increase or decrease of related substance(s), HPLC area percentage
[8] = Table 10, *1 with hydration stage

Row | Structure (SMILES) | Thermal stability, conclusion in words [1] | Chemical stability 60° C., 75% RH, 1 week (open) [2, 4] | Chemical stability 60° C. (sealed) [2, 5] | Hygroscopicity or Deliquescency Weight change at 90% RH [3, 6] | Chemical stability, conclusion in words [2] | Hygroscopicity or deliquescency, conclusion in words [3] | other results
1 | CC(=O)NC1CCC(NC(=O)CN2CCN(c3nncc(-c4ccc(C)cc4)n3)CC2)CC1.CS(=O)(=O)O (centres unmarked) [Mesilate Form A crystal] | excellent thermal stability | 5.73% | −0.13% | 17% | – | – | Thermal stability TG: weight change ([1]; 120° C.): 0.8%
2 | Br.Br.CC(=O)NC1CCC(NC(=O)CN2CCN(c3nncc(-c4ccc(C)cc4)n3)CC2)CC1 (centres unmarked) [Hydrobromide Form F crystal] | – | – | – | – | – | – | Thermal stability TG: weight change ([1]; Table 10, room temperature −200° C.): 4.8%; Chemical stability 60° C. (sealed) ([2]; Table 10, 1 week, increase or decrease of related substance(s), HPLC area percentage): 0.02%; Chemical stability 60° C., 75% RH, 1 week (open) [2, 7]: 0.12%; Hygroscopicity or Deliquescency Weight change at 90% RH [3, 8]: 3.5%*^1; Hydration state (hydration stage in moisture adsorption) [3]: hydrate
3 | CC(=O)NC1CCC(NC(=O)CN2CCN(c3nncc(-c4ccc(C)cc4)n3)CC2)CC1.CC(=O)NC1CCC(NC(=O)CN2CCN(c3nncc(-c4ccc(C)cc4)n3)CC2)CC1.O=S(=O)(O)O.O=S(=O)(O)O.O=S(=O)(O)O.O=S(=O)(O)O.O=S(=O)(O)O (centres unmarked) [Sulfate Form A crystal] | – | – | – | 8% | – | – | –
4 | CC(=O)NC1CCC(NC(=O)CN2CCN(c3nncc(-c4ccc(C)cc4)n3)CC2)CC1.Cc1ccc(S(=O)(=O)O)cc1 (centres unmarked) [Tosilate Form B crystal] | excellent thermal stability | −0.05% | −0.07% | 7.5% | excellent chemical stability | excellent in the reduced hygroscopicity or deliquescency | Thermal stability TG: weight change ([1]; 25° C.-melting point): 0.7%
5 | CC(=O)NC1CCC(NC(=O)CN2CCN(c3nncc(-c4ccc(C)cc4)n3)CC2)CC1.O=C(O)CC(O)(CC(=O)O)C(=O)O (centres unmarked) [Citrate Form A crystal] | excellent thermal stability | 0.03% | −0.03% | 7.6% | excellent chemical stability | – | Thermal stability TG: weight change ([1]; 25° C.-melting point): 2.2%
6 | Br.CC(=O)NC1CCC(NC(=O)CN2CCN(c3nncc(-c4ccc(C)cc4)n3)CC2)CC1 (centres unmarked) [Hydrobromide Form N crystal] | – | – | – | – | – | – | Thermal stability TG: weight change ([1]; Table 10, 25-242° C.): 6.2%; Chemical stability 60° C., 75% RH, 1 week (open) [2, 7]: 0.00%; Hygroscopicity or Deliquescency Weight change at 90% RH [3, 8]: 7.2%*^1; Hydration state (hydration stage in moisture adsorption) [3]: hydrate
7 | CC(=O)NC1CCC(NC(=O)CN2CCN(c3nncc(-c4ccc(C)cc4)n3)CC2)CC1.CC(=O)NC1CCC(NC(=O)CN2CCN(c3nncc(-c4ccc(C)cc4)n3)CC2)CC1.O.O.O.O.O=S(=O)(O)O.O=S(=O)(O)O.O=S(=O)(O)O.O=S(=O)(O)O.O=S(=O)(O)O (centres unmarked) [Sulfate Form B crystal] | excellent thermal stability | 0.13% | 0% | 5%*^1 | excellent chemical stability | excellent in the reduced hygroscopicity or deliquescency | Thermal stability TG: weight change ([1]; 25-93° C.): 4.3%; Thermal stability TG: weight change ([1]; 93-105° C.): 1.6%; Hydration state (hydration stage in moisture adsorption) [3]: hydrate
8 | CC(=O)NC1CCC(NC(=O)CN2CCN(c3nncc(-c4ccc(C)cc4)n3)CC2)CC1.O=C(O)CO (centres unmarked) [Glycolate Form A crystal] | – | 0.02% | 0.02% | 1.9% | excellent chemical stability | excellent in the reduced hygroscopicity or deliquescency | Thermal stability TG: weight change ([1]; 70° C.-melting point): 14.4%
9 | CC(=O)NC1CCC(NC(=O)CN2CCN(c3nncc(-c4ccc(C)cc4)n3)CC2)CC1.O=C(O)CC(O)C(=O)O (centres unmarked) [Malate Form A crystal] | – | – | – | 15% | – | – | Thermal stability TG: weight change ([1]; 25-280° C.): 21.2%
10 | CC(=O)NC1CCC(NC(=O)CN2CCN(c3nncc(-c4ccc(C)cc4)n3)CC2)CC1.O=C(O)C=CC(=O)O (centres unmarked) [Maleate Form A crystal] | excellent thermal stability | 0.12% | 0.01% | 22% | excellent chemical stability | – | Thermal stability TG: weight change ([1]; no temperature range printed): 0.0%
11 | CC(=O)NC1CCC(NC(=O)CN2CCN(c3nncc(-c4ccc(C)cc4)n3)CC2)CC1.Cl.Cl (centres unmarked) [Hydrochloride Form B crystal] | – | – | – | 5.5% | – | – | –
12 | CC(=O)NC1CCC(NC(=O)CN2CCN(c3nncc(-c4ccc(C)cc4)n3)CC2)CC1.O=C(O)CCC(=O)O (centres unmarked) [Succinate Form A crystal] | excellent thermal stability | 0.02% | 0.04% | 0.4% | excellent chemical stability | excellent in the reduced hygroscopicity or deliquescency | Thermal stability TG: weight change ([1]; 25-148° C.): 0.0%; Thermal stability TG: weight change ([1]; 148-210° C.): 23.7%
13 | CC(=O)NC1CCC(NC(=O)CN2CCN(c3nncc(-c4ccc(C)cc4)n3)CC2)CC1.O=C(O)C=CC(=O)O (centres unmarked) [Maleate Form B crystal] | excellent thermal stability | 9.66% | 0.02% | 7.5% | – | – | Thermal stability TG: weight change ([1]; 25-90° C.): 0.4%; Thermal stability TG: weight change ([1]; 120-260° C.): 17.6%; Condition of the sample after storage at 60° C., 75% RH, 1 week (open) ([2]; Table 5, remark in words under the value (glycolate: free body was observed at 60° C., 75% RH, 1 week)): (deliquescent)
14 | CC(=O)NC1CCC(NC(=O)CN2CCN(c3nncc(-c4ccc(C)cc4)n3)CC2)CC1.Cl (centres unmarked) [Hydrochloride Form A crystal] | excellent thermal stability | −0.01% | −0.01% | 7.5% | excellent chemical stability | – | Thermal stability TG: weight change ([1]; 25-160° C.): 0.4%
15 | CC(=O)NC1CCC(NC(=O)CN2CCN(c3nncc(-c4ccc(C)cc4)n3)CC2)CC1.Cc1ccc(S(=O)(=O)O)cc1.Cc1ccc(S(=O)(=O)O)cc1 (centres unmarked) [Tosilate Form C crystal] | excellent thermal stability | 0.39% | 0.04% | 1.4% | excellent chemical stability | excellent in the reduced hygroscopicity or deliquescency | Thermal stability TG: weight change ([1]; 25° C.-melting point): 1.2%
